These results are taken from patent US7923461B2, “TNF-α production inhibitors” (Santen Pharmaceutical Co., Ltd., priority 2000, dated 2011).

Structures can show the parent of a compound that is named as a salt.

One data set relates to TNF-α production. As to the kind of experiment: Inhibitory effects on TNF-α production induced by lipopolysaccharide (LPS) stimulation, in vivo test. On the set-up: species or system rat. The settings on record: female rats, plasma TNF-α (ELISA) two hours after LPS; for inhibition in vivo at 10 mg/kg / inhibition in vivo at 3 mg/kg: Rattus norvegicus, 2 h, read-out: Inhibition rate (%) of TNF-α production; for inhibition in vivo at 10 mg/kg: oral administration of 10 mg/kg immediately after LPS to footpad; for inhibition in vivo at 3 mg/kg / Inhibition rate (%) of TNF-α production: oral administration of 3 mg/kg immediately after LPS to footpad. On the procedure:
Inhibitory effects on TNF-α production induced by lipopolysaccharide (LPS) stimulation were studied by in vivo tests according to the method of Tsuji et al. (Inflamm res. 46 (1997) 193-198).
Female rats (five per group), body weight of about 200 g, about eight weeks old, were used as test animals. LPS from Salmonella was dissolved in physiological saline to prepare an LPS solution (1 mg/ml). Each test substance was dissolved or uniformly suspended in a 1% methylcellulose solution to give test substance-preparation liquids.
The above-mentioned LPS solution (0.5 ml/kg) was administered to a footpad of the rat. Immediately after the LPS administration, the test substance-preparation liquid (containing 10 mg/kg or 3 mg/kg test substance) was orally administered. Two hours after the LPS administration, blood was collected from abdominal aorta and was centrifuged at 4° C. and 3000 rpm for ten minutes. TNF-α levels in the obtained plasma were measured with a rat TNF-α-specific ELISA kit. TNF-α was not observed in the plasma with respect to an LPS-non-administered group (control).
Inhibition rates of TNF-α production of the test substances were determined by the following equation. Inhibition rate (%)=[(A−B)/A]×100 A: TNF-α level in plasma of test substance-nonadministered group B: TNF-α level in plasma of test substance-administered group (Results)
(In general: An ELISA detects its analyte on a solid surface through an enzyme-linked reagent.)

By melting point is commonly meant the temperature, or range, at which the solid turns liquid. Compound `CCCCCNC(=O)N(CCCc1ccncc1)CCC12CC3CC(CC(C3)C1)C2` [Compound No. 1-66, 1-[2-(1-Adamantyl)ethyl]-3-pentyl-1-[3-(4-pyridyl)propyl]urea] showed a melting point of 47 to 50 °C. In addition, the inhibition in vivo at 10 mg/kg with TNF-α production was 79.4%.
Compound `CCCCCN(CCC12CC3CC(CC(C3)C1)C2)C(=O)NC(C)CCc1ccncc1` (stereo not shown) [Compound No. 1-137, 1-[2-(1-Adamantyl)ethyl]-3-[1-methyl-3-(4-pyridyl)propyl]-1-pentylurea] returned a melting point of 128.5 to 129 °C. In addition, in the data set on TNF-α production, the inhibition in vivo at 3 mg/kg was 82.1%.
`O=C(NCCCc1ccncc1)N(CCC12CC3CC(CC(C3)C1)C2)Cc1cccs1` [Compound No. 1-27, 1-[2-(1-Adamantyl)ethyl]-3-[3-(4-pyridyl)propyl]-1-(2-thienyl)methylurea] had a melting point of 142.5 to 144.5 °C. Moreover, the inhibition in vivo at 10 mg/kg with TNF-α production is 81.3%.
With `CCCCCN(CCc1ccccc1)C(=O)NCCCc1ccncc1` [Compound No. 1-45, 1-Pentyl-1-phenethyl-3-[3-(4-pyridyl)propyl]urea], the inhibition in vivo at 10 mg/kg in the data set with TNF-α production amounted to 91.1%.
For the compound `CN(CCN(CCC12CC3CC(CC(C3)C1)C2)C(=O)OCCCc1ccncc1)C(=O)OC(C)(C)C` [Compound No. 5-5, 3-(4-Pyridyl)propyl N-[2-(1-adamantyl)ethyl]-N-[2-[N′-(tbutoxycarbonyl)-N′-methylamino]ethyl]carbamate], in the data set on TNF-α production, the “Inhibition rate (%) of TNF-α production” value is given as 42.8%.
With `CCCCCN(CCC12CC3CC(CC(C3)C1)C2)C(=O)CCCCc1ccncc1` [Compound No. 2-14, 5-(4-Pyridyl)valeric acid N-[2-(1-adamantyl)ethyl]-N-pentylamide], the inhibition in vivo at 3 mg/kg with TNF-α production worked out at 87.3%.
`CCCCCN(CCc1ccccn1)C(=O)NCCCc1ccncc1` [Compound No. 1-55, 1-Pentyl-1-[2-(2-pyridyl)ethyl]-3-[3-(4-pyridyl)propyl]urea]: in the data set with TNF-α production, the inhibition in vivo at 10 mg/kg was found to be 78.1%.
Regarding `CCCCCN(CCC12CC3CC(CC(C3)C1)C2)C(=O)C(N)CSCc1ccncc1` (stereo not shown) [Compound No. 3-4, 2-Amino-3-(4-pyridylmethylthio)propionic acid N-[2-(1-adamantyl)ethyl]-N-pentylamide dihydrochloride], the inhibition in vivo at 3 mg/kg in the data set on TNF-α production is 76.1%.
For the compound `CCCCCN(CCC12CC3CC(CC(C3)C1)C2)C(=O)CCCCCc1ccncc1` [Compound No. 2-20, 6-(4-Pyridyl)caproic acid N-[2-(1-adamantyl)ethyl]-N-pentylamide], the inhibition in vivo at 3 mg/kg with TNF-α production worked out at 82.1%.
Take `CCCCCN(CCCCC)C(=O)NCCCc1ccncc1` [Compound No. 1-38, 1,1-Dipentyl-3-[3-(4-pyridyl)propyl]urea]: the inhibition in vivo at 10 mg/kg in the data set on TNF-α production is 92.3%.
For the compound `CCCCCN(CCC12CC3CC(CC(C3)C1)C2)C(=O)OCC(C)Cc1ccncc1` (stereo not shown) [Compound No. 5-6, 2-Methyl-3-(4-pyridyl)propyl N-[2-(1-adamantyl)ethyl]-N-pentylcarbamate], the inhibition in vivo at 3 mg/kg with TNF-α production came to 41.7%.
Still for that read-out and setting: the same measure for `CCCCCN(CCC12CC3CC(CC(C3)C1)C2)C(=O)CSCCc1ccncc1` [Compound No. 2-18, 2-[2-(4-Pyridyl)ethylthio]acetic acid N-[2-(1-adamantyl)ethyl]-N-pentylamide]: 87.3%; for `CCCCCN(CCC12CC3CC(CC(C3)C1)C2)C(=O)NC/C=C\c1ccncc1` [Compound No. 1-111, (Z)-1-[2-(1-Adamantyl)ethyl]-1-pentyl-3-[3-(4-pyridyl)-2-propenyl]urea]: 85.1%; for `CCCCCN(CCC12CC3CC(CC(C3)C1)C2)C(=O)NCCC(O)c1ccncc1` (stereo not shown) [Compound No. 14-1, 1-[2-(1-Adamantyl)ethyl]-3-[3-hydroxy-3-(4-pyridyl)propyl]-1-pentylurea]: 36.3%.
Take `CCCCCN(CCC12CC3CC(CC(C3)C1)C2)C(=O)NCCC(=O)c1ccncc1` [Compound No. 31-1, 1-[2-(1-Adamantyl)ethyl]-3-[3-oxo-3-(4-pyridyl)propyl]-1-pentylurea]: the inhibition in vivo at 3 mg/kg in the data set on TNF-α production worked out at 46.8%.
Consider `CCCN(CCCC12CC3CC(CC(C3)C1)C2)C(=O)NCCCc1ccncc1` [Compound No. 1-35, 1-[3-(1-Adamantyl)propyl]-1-propyl-3-[3-(4-pyridyl)propyl]urea], for which the inhibition in vivo at 10 mg/kg in the data set on TNF-α production amounted to 82.5%.
As for `CCCCCN(CC12CC3CC(CC(C3)C1)C2)C(=O)CCCCc1ccncc1` [Compound No. 2-3, 5-(4-Pyridyl)valeric acid N-(1-adamantyl)methyl-N-pentylamide], in the data set on TNF-α production, the inhibition in vivo at 10 mg/kg was determined as 51.8%.
With `CCCCCN(CCN(C)C(=O)OCc1ccccc1)C(=O)NCCCc1ccncc1` [Compound No. 1-78, [2-(N-Benzyloxycarbonyl-N-methylamino)ethyl]-1-pentyl-3-[3-(4-pyridyl)propyl]urea], the “Inhibition rate (%) of TNF-α production” value in the data set with TNF-α production was found to be 61.5%.
With `CCCCCN(CCC12CC3CC(CC(C3)C1)C2)C(=O)CCSCc1ccncc1` [Compound No. 2-15, 3-(4-Pyridylmethylthio)propionic acid N-[2-(1-adamantyl)ethyl]-N-pentylamide], the inhibition in vivo at 3 mg/kg in the data set on TNF-α production was determined as 68.1%.
Consider `C=CCCCCCCN(CCCCCCC=C)C(=O)NCCCc1ccncc1` [Compound No. 1-95, 1,1-Di(7-octenyl)-3-[3-(4-pyridyl)propyl]urea], for which the inhibition in vivo at 3 mg/kg in the data set on TNF-α production came out at 70.8%.
As for `CCCCN(CCCC)C(=O)NCCCc1ccncc1` [Compound No. 1-10, 1,1-Dibutyl-3-[3-(4-pyridyl)propyl]urea], in the data set with TNF-α production, the inhibition in vivo at 3 mg/kg turned out to be 63%.
For the compound `O=C1CCN(CCC23CC4CC(CC(C4)C2)C3)C(=O)N1CCCc1ccncc1` [Compound No. 6-1, 1-[2-(1-Adamantyl)ethyl]-3-[3-(4-pyridyl)propyl]hexahydro-2,4-pyrimidinedione hydrochloride], the inhibition in vivo at 10 mg/kg with TNF-α production came out at 50.5%.
As to `O=C(NCCCc1ccncc1)N(CCC12CC3CC(CC(C3)C1)C2)OCc1ccccc1` [Compound No. 1-28, 1-[2-(1-Adamantyl)ethyl]-1-benzyloxy-3-[3-(4-pyridyl)propyl]urea], the inhibition in vivo at 10 mg/kg with TNF-α production turned out to be 90.4%.
As for `CCCN(CCCC12CC3CC(CC(C3)C1)C2)C(=O)OCCCc1ccncc1` [Compound No. 5-3, 3-(4-Pyridyl)propyl N [3-(1-adamantyl)propyl]-N-propylcarbamate], the “Inhibition rate (%) of TNF-α production” value in the data set on TNF-α production is listed as 49.4%.
`CCCCCN(CCC1CCCCC1)C(=O)CCCCc1ccncc1` [Compound No. 2-11, 5-(4-Pyridyl)valeric acid N-(2-cyclohexylethyl)-NY-pentylamide]: the “Inhibition rate (%) of TNF-α production” value in the data set on TNF-α production was 53.5%.
For the compound `CN(CCN(CCC12CC3CC(CC(C3)C1)C2)C(=O)CCCCc1ccncc1)C(=O)OCc1ccccc1` [Compound No. 10-16, 5-(4-Pyridyl)valeric acid N-[2-(1-adamantyl)ethyl]-N-[2-(N′-benzyloxycarbonyl-N′-methylamino)ethyl]amide], in the data set on TNF-α production, the “Inhibition rate (%) of TNF-α production” value came out at 62.8%.
Regarding `CCCCCN(CCC12CC3CC(CC(C3)C1)C2)C(=O)COCCc1ccncc1` [Compound No. 18-3, 2-[2-(4-Pyridyl)ethoxy]acetic acid N-[2-(1-adamantyl)ethyl]-N-pentylamide], in the data set on TNF-α production, the inhibition in vivo at 3 mg/kg worked out at 56.6%.
On to `CCCCCN(CCC12CC3CC(CC(C3)C1)C2)C(=O)NCC(C)Cc1ccncc1` (single isomer, unassigned; (-)) [Compound No. 1-120, (−)-1-[2-(1-Adamantyl)ethyl]-3-[2-methyl-3-(4-pyridyl)propyl]-1-pentylurea], for which the inhibition in vivo at 10 mg/kg in the data set on TNF-α production was found to be 95.1%.
Turning to `CCCCCN(CCC12CC3CC(CC(C3)C1)C2)C(=O)NCCCc1ccnc(C)c1` [Compound No. 27-1, 1-[2-(1-Adamantyl)ethyl]-3-[3-[4-(2-methyl)pyridyl]propyl]-1-pentylurea], the “Inhibition rate (%) of TNF-α production” value in the data set on TNF-α production turned out to be 68.6%.
The same measure, in the same setting: in the case of `CN(CCN(CCC12CC3CC(CC(C3)C1)C2)C(=O)CCCCc1ccncc1)C(=O)OC(C)(C)C` [Compound No. 2-7, 5-(4-Pyridyl)valeric acid N-[2-(1-adamantyl)ethyl]-N-[2-[N-(tbutoxycarbonyl)-N′-methylamino]ethyl]amide] it was 78.7%.
Consider `CCCCCN(CCc1ccccc1)C(=O)CCCCc1ccncc1` [Compound No. 2-9, 5-(4-Pyridyl)valeric acid N-pentyl-N-phenethylamide], for which, in the data set on TNF-α production, the inhibition in vivo at 3 mg/kg was determined as 84.5%.
Consider `CN(CCN(CCC12CC3CC(CC(C3)C1)C2)C(=O)NCCCc1ccncc1)C(=O)OC(C)(C)C` [Compound No. 1-26, 1-[2-(1-Adamantyl)ethyl]-1-[2-[N-(t-butoxycarbonyl)-N-methylamino]ethyl]-3-[3-(4-pyridyl)propyl]urea], for which the inhibition in vivo at 10 mg/kg in the data set on TNF-α production amounted to 95.5%.
On the same count and under the same terms, the same measure for `CCCCCN(CCC12CC3CC(CC(C3)C1)C2)C(=S)NCCCc1ccncc1` [Compound No. 7-1, 1-[2-(1-Adamantyl)ethyl]-1-pentyl-3-[3-(4-pyridyl)propyl]thiourea]: 71.5%; for `N#CCN(CCC12CC3CC(CC(C3)C1)C2)C(=O)NCCCc1ccncc1` [Compound No. 1-20, 1-[2-(1-Adamantyl)ethyl]-1-cyanomethyl-3-[3-(4-pyridyl)propyl]urea]: 60%.
